{"source": "the Deep4Chem optical property database", "assay": "solvent given as SMILES"}
{"smiles": "COc1c2ccccc2c(OC)c2c1c1ccc(C(F)(F)F)cc1n2C", "values": [{"measurement": "absorption maximum", "setting": "in C1CCCCC1", "result": 416, "unit": "nm"}, {"measurement": "absorption maximum", "setting": "in CC#N", "result": 417, "unit": "nm"}, {"measurement": "absorption maximum", "setting": "in CO", "result": 416, "unit": "nm"}, {"measurement": "absorption maximum", "setting": "in ClCCl", "result": 419, "unit": "nm"}]}
{"smiles": "CC(C)(C)c1ccc(-n2c(-c3ccc(N(c4ccc(-c5ccc(N(c6ccc(-c7nc8c9ccccc9c9ccccc9c8n7-c7ccc(C(C)(C)C)cc7)cc6)c6ccc(-c7nc8c9ccccc9c9ccccc9c8n7-c7ccc(C(C)(C)C)cc7)cc6)cc5)cc4)c4ccc(-c5nc6c7ccccc7c7ccccc7c6n5-c5ccc(C(C)(C)C)cc5)cc4)cc3)nc3c4ccccc4c4ccccc4c32)cc1", "values": [{"measurement": "absorption maximum", "setting": "in ClCCl", "result": 377, "unit": "nm"}]}
{"smiles": "CCCCCCc1ccsc1-c1ccc2c(c1)C1=[N+]3C2=Cc2c4ccc(-c5sccc5CCCCCC)cc4c4n2[B-]3(Oc2ccccc21)Oc1ccccc1-4", "note": "(stereo not drawn)", "values": [{"measurement": "absorption maximum", "setting": "in C1CCOC1", "result": 733, "unit": "nm"}]}
{"smiles": "COc1ccc(N(c2ccc(OC)cc2)c2ccc(-c3ccc4nc5ccccc5c(=O)n4c3)cc2)cc1", "values": [{"measurement": "absorption maximum", "setting": "in ClCCl", "result": 361, "unit": "nm"}]}
{"smiles": "O=S1(=O)c2ccc(-c3ccc(N(c4ccccc4)c4ccccc4)cc3)cc2C2(c3ccccc3-c3ccccc32)c2cc(-c3ccc(N(c4ccccc4)c4ccccc4)cc3)ccc21", "values": [{"measurement": "absorption maximum", "setting": "in ClCCl", "result": 363, "unit": "nm"}]}
{"smiles": "c1ccc(N(c2ccccc2)c2ccc3c4cccc5c(N(c6ccccc6)c6ccccc6)ccc(c6cccc2c63)c54)cc1", "values": [{"measurement": "absorption maximum", "setting": "in C1CCCCC1", "result": 493, "unit": "nm"}, {"measurement": "absorption maximum", "setting": "in C1CCOC1", "result": 489, "unit": "nm"}, {"measurement": "absorption maximum", "setting": "in CC#N", "result": 483, "unit": "nm"}, {"measurement": "absorption maximum", "setting": "in Cc1ccccc1", "result": 492, "unit": "nm"}, {"measurement": "absorption maximum", "setting": "in ClCCl", "result": 490, "unit": "nm"}]}
{"smiles": "CCOC(=O)COc1ccc(/C=C/C2=C3c4ccccc4C(c4[nH]c(C)cc4C)=[N+]3[B-](F)(F)n3c(C)cc(C)c32)cc1", "values": [{"measurement": "absorption maximum", "setting": "in C1CCOC1", "result": 608, "unit": "nm"}, {"measurement": "absorption maximum", "setting": "in CC#N", "result": 602, "unit": "nm"}, {"measurement": "absorption maximum", "setting": "in CCCCCC", "result": 608, "unit": "nm"}, {"measurement": "absorption maximum", "setting": "in CO", "result": 603, "unit": "nm"}, {"measurement": "absorption maximum", "setting": "in Cc1ccccc1", "result": 614, "unit": "nm"}, {"measurement": "absorption maximum", "setting": "in ClCCl", "result": 608, "unit": "nm"}]}
{"smiles": "N#Cc1c2oc3ccccc3oc2c(C#N)c2oc3ccccc3oc12", "values": [{"measurement": "absorption maximum", "setting": "in ClC(Cl)Cl", "result": 430, "unit": "nm"}]}
{"smiles": "COc1cc2c(cc1/C=C/C1=CC(=C(C#N)C#N)CC(C)(C)C1)c1ccccc1n2C", "values": [{"measurement": "absorption maximum", "setting": "in C1CCOC1", "result": 475, "unit": "nm"}, {"measurement": "absorption maximum", "setting": "in CC#N", "result": 477, "unit": "nm"}, {"measurement": "absorption maximum", "setting": "in CCO", "result": 479, "unit": "nm"}, {"measurement": "absorption maximum", "setting": "in CCOC(C)=O", "result": 462, "unit": "nm"}, {"measurement": "absorption maximum", "setting": "in CN(C)C=O", "result": 484, "unit": "nm"}, {"measurement": "absorption maximum", "setting": "in CS(C)=O", "result": 489, "unit": "nm"}, {"measurement": "absorption maximum", "setting": "in Cc1ccccc1", "result": 468, "unit": "nm"}, {"measurement": "absorption maximum", "setting": "in ClC(Cl)Cl", "result": 485, "unit": "nm"}, {"measurement": "absorption maximum", "setting": "in ClCCl", "result": 478, "unit": "nm"}]}
{"smiles": "CCCCCCCCCCCCc1ccc(-c2cc(C)[o+]c(C)c2)cc1", "values": [{"measurement": "absorption maximum", "setting": "in CC#N", "result": 350, "unit": "nm"}, {"measurement": "absorption maximum", "setting": "in ClCCl", "result": 370, "unit": "nm"}]}
{"smiles": "c1ccc(-n2c3c(c4c2-c2ccccc2C42c4ccccc4-c4ccccc42)C2(c4ccccc4-c4ccccc42)c2ccccc2-3)cc1", "values": [{"measurement": "absorption maximum", "setting": "in C1CCOC1", "result": 375, "unit": "nm"}]}
{"smiles": "c1ccn(-c2ccc(-c3cc(-c4ccc(-n5cccc5)cc4)cc(-c4ccc(-n5cccc5)cc4)c3)cc2)c1", "values": [{"measurement": "absorption maximum", "setting": "in ClCCl", "result": 388.72, "unit": "nm"}]}
{"smiles": "CCCCCCCCC1(CCCCCCCC)c2cc(C#Cc3ccc(N(c4ccccc4)c4ccccc4)cc3)ccc2-c2ccc(C=O)cc21", "values": [{"measurement": "absorption maximum", "setting": "in C1CCOC1", "result": 378, "unit": "nm"}, {"measurement": "absorption maximum", "setting": "in C1COCCO1", "result": 381, "unit": "nm"}, {"measurement": "absorption maximum", "setting": "in CC#N", "result": 378, "unit": "nm"}, {"measurement": "absorption maximum", "setting": "in CC(C)=O", "result": 373, "unit": "nm"}, {"measurement": "absorption maximum", "setting": "in CCOC(C)=O", "result": 376, "unit": "nm"}, {"measurement": "absorption maximum", "setting": "in CN(C)C=O", "result": 380, "unit": "nm"}, {"measurement": "absorption maximum", "setting": "in CS(C)=O", "result": 381, "unit": "nm"}, {"measurement": "absorption maximum", "setting": "in Cc1ccccc1", "result": 388, "unit": "nm"}, {"measurement": "absorption maximum", "setting": "in ClC(Cl)Cl", "result": 386, "unit": "nm"}, {"measurement": "absorption maximum", "setting": "in ClCCl", "result": 384, "unit": "nm"}]}
{"smiles": "C(#Cc1ccccc1)C(C#Cc1ccccc1)=Cc1ccc2cc(C=C(C#Cc3ccccc3)C#Cc3ccccc3)ccc2c1", "values": [{"measurement": "absorption maximum", "setting": "in ClC(Cl)Cl", "result": 418, "unit": "nm"}]}
{"smiles": "CC1(C)C(/C=C/C=C/C=C/C=C2/N(CCC(=O)O)c3ccc4ccccc4c3C2(C)C)=[N+](CCC(=O)O)c2ccc3ccccc3c21", "values": [{"measurement": "absorption maximum", "setting": "in CO", "result": 792, "unit": "nm"}]}
{"smiles": "O=C1CCCc2c1[nH]c1cc3c(cc21)OCO3", "values": [{"measurement": "absorption maximum", "setting": "in C1CCOC1", "result": 337.3, "unit": "nm"}, {"measurement": "absorption maximum", "setting": "in CC#N", "result": 335.33, "unit": "nm"}, {"measurement": "absorption maximum", "setting": "in CCCCCCO", "result": 343.23, "unit": "nm"}, {"measurement": "absorption maximum", "setting": "in CCO", "result": 338.86, "unit": "nm"}, {"measurement": "absorption maximum", "setting": "in CCOC(C)=O", "result": 335.84, "unit": "nm"}, {"measurement": "absorption maximum", "setting": "in CS(C)=O", "result": 340.34, "unit": "nm"}, {"measurement": "absorption maximum", "setting": "in O", "result": 341.09, "unit": "nm"}, {"measurement": "absorption maximum", "setting": "in c1ccccc1", "result": 339.29, "unit": "nm"}]}
